12 compounds from ChEMBL document CHEMBL3611982, “Lowering the pKa of a bisimidazoline lead with halogen atoms results in improved activity and selectivity against Trypanosoma brucei in vitro” (Eur J Med Chem, 2015) can be followed below.

Data set [1] deals with Trypanosoma brucei brucei. Kind of data set: Resistant factor, ratio of EC50 for diminazene/pentamidine/melaminophenyl arsenicals-resistant Trypanosoma brucei brucei B48 to EC50 for wild type bloodstream form of Trypanosoma brucei brucei s427 trypomastigotes. The class given is functional.
The test system of data set [2] is Trypanosoma brucei brucei. Briefly: Trypanocidal activity against wild type bloodstream form of Trypanosoma brucei brucei s427 trypomastigotes after 70 hrs by Alamar Blue assay. Particulars: s427, 70 h. The class given is functional, organism-based. (The colour change of resazurin is a common sign of viable cells or microbes.)
The subject of data set [3] is Trypanosoma brucei brucei. Briefly: Trypanocidal activity against diminazene/pentamidine/melaminophenyl arsenicals-resistant bloodstream form of Trypanosoma brucei brucei B48 trypomastigotes after 70 hrs by Alamar Blue assay. The class given is functional, organism-based. The conditions noted are these: B48, 70 h.
Data set [4] can be described thus: Cytotoxicity against HEK293T cells after 30 hrs by Alamar Blue assay. The class given is cell-based, HEK-293T. The conditions noted are these: human.
A short description of data set [5]: Selectivity index, ratio of CC50 for HEK293T cells to EC50 for wild type bloodstream form of Trypanosoma brucei s427 trypomastigotes. The class given is toxicity, cell-based, HEK-293T. The conditions noted are these: human, read-out: Ratio CC50/EC50.
The subject of data set [6] is Trypanosoma brucei brucei. Briefly: Trypanocidal activity against Trypanosoma brucei brucei s427 at 2.5 uM measured over 2 hrs by propidium iodide staining-based fluorimetric analysis. The class given is functional, organism-based.
Data set [7] has as its system Trypanosoma brucei brucei. Briefly: Trypanocidal activity against Trypanosoma brucei brucei s427 at 5 uM measured over 1 hr by propidium iodide staining-based fluorimetric analysis. The class given is functional, organism-based.
The subject of data set [8] is Trypanosoma brucei brucei. Kind of data set: Trypanocidal activity against Trypanosoma brucei brucei s427 at >5 fold EC50 measured within 6 hrs by propidium iodide staining-based fluorimetric analysis. The class given is functional, organism-based.
Data set [9] deals with Trypanosoma brucei brucei. Kind of data set: Trypanocidal activity against Trypanosoma brucei brucei s427 measured within 6 hrs by propidium iodide staining-based fluorimetric analysis. The class given is functional, organism-based.

Activity calls are given as the source filed them. No cut-off for these calls is given here.

Take `N=C(N)c1ccc(OCCCCCOc2ccc(C(=N)N)cc2)cc1` [PENTAMIDINE]: the “Ratio EC50” value in [1] is reported as 3349. Further, the EC50 (as a rule, the concentration that produces a half-maximal response) in data set [2] is 0.11 nM; in [3] it was 550 nM.
With `O=C(Nc1ccc(N=C2NCCN2)cn1)c1ccc(N=C2NCCN2)cc1`, in data set [1], the “Ratio EC50” value is listed as 3.1. The 50% effective concentration (EC50) in data set [2] is 1040 nM; in data set [3], 3230 nM. The CC50 (usually the concentration that lowers cell viability or growth by half) at 30 h in data set [4] is above 200000 nM. Further, the selectivity ratio in [5] was above 190.
For the compound `O=C(Nc1ccc(N=C2NCCN2)cc1F)c1ccc(N=C2NCCN2)cc1`, the “Ratio EC50” value in [1] was found to be 1.4. Further, the EC50 stood at 1580 nM in data set [2] and 2160 nM in data set [3]. Also, the CC50 at 30 h in data set [4] was above 200000 nM. In addition, the selectivity ratio in data set [5] was above 120.
For `O=C(Nc1ccc(N=C2NCCN2)cc1)c1ccc(N=C2NCCN2)c(F)c1`, in data set [1], the “Ratio EC50” value was 1.3. In addition, the values for the EC50 in data set [2] and in data set [3] were 530 nM and 690 nM, respectively. The CC50 at 30 h in [4] was above 200000 nM. For the same compound, the selectivity ratio in data set [5] is above 370.
For `N=C(N)c1ccc(/N=N/Nc2ccc(C(=N)N)cc2)cc1` [DIMINAZENE], the “Ratio EC50” value in data set [1] stood at 42. Moreover, the figures for the EC50 in [2] and in data set [3] were 12 nM and 780 nM, respectively.
Turning to `O=C(Nc1ccc(N=C2NCCN2)cc1)c1ccc(N=C2NCCN2)cc1F`, the “Ratio EC50” value in data set [1] stood at 1.4. Moreover, the EC50 in [2] was determined as 470 nM; in data set [3], 650 nM. The same compound came in with a CC50 at 30 h in data set [4] above 200000 nM. In addition, the outcome in [6] and in data set [7] was Active. For the same compound, the selectivity ratio in [5] is above 420.
Regarding `O=C(Nc1ccc(NC2=NCCN2)cc1)c1ccc(NC2=NCCN2)cc1`, the “Ratio EC50” value in data set [1] is on record as 1.1. In addition, in [8], the outcome was Active. The EC50 in [2] was determined as 830 nM; in data set [3], 870 nM. This compound returned a CC50 at 30 h in [4] above 200000 nM. In addition, in data set [9], the Activity entry was “Dose-dependent effect”. In addition, in data set [5], the selectivity ratio is above 240.
Take `O=C(Nc1ccc(N=C2NCCN2)c(Cl)c1)c1ccc(N=C2NCCN2)cc1`: the “Ratio EC50” value in [1] is 1.7. The EC50 in data set [2] was found to be 220 nM; in data set [3], 360 nM. The CC50 at 30 h in [4] is above 200000 nM. For the same compound, in data set [5], the selectivity ratio is above 900. The result in [7] was Active.
Take `O=C(Nc1ccc(N=C2NCCN2)cc1)c1ccc(N=C2NCCN2)cc1Cl`: the “Ratio EC50” value in data set [1] worked out at 1.8. Besides, the figures for the EC50 in data set [2] and in data set [3] were 1320 nM and 2440 nM, respectively. In [4], this compound registered a CC50 at 30 h above 200000 nM. The selectivity ratio in data set [5] is above 150.
For `O=C(Nc1ccc(N=C2NCCN2)cc1)c1ccc(N=C2NCCN2)c(Cl)c1`, the “Ratio EC50” value in data set [1] is recorded as 0.9. The values for the EC50 in data set [2] and in data set [3] were 970 nM and 830 nM, respectively. The CC50 at 30 h in [4] was above 200000 nM. Further, the selectivity ratio in data set [5] is above 200.
With `O=C(Nc1ccc(N=C2NCCN2)cc1Cl)c1ccc(N=C2NCCN2)cc1`, in data set [1], the “Ratio EC50” value worked out at 1. Moreover, the EC50 in data set [2] was found to be 4220 nM; in [3], 4350 nM. Also, the CC50 at 30 h in data set [4] is above 200000 nM. Moreover, the selectivity ratio in data set [5] was above 45.
`O=C(Nc1ccc(N=C2NCCN2)c(F)c1)c1ccc(N=C2NCCN2)cc1`: the “Ratio EC50” value in data set [1] amounted to 1.4. In addition, the EC50 in data set [2] was determined as 580 nM; in [3] it was 790 nM. The compound further had a CC50 at 30 h in data set [4] above 200000 nM. In addition, the selectivity ratio in [5] was above 340.
